Laboratory results from patent US8222281B2, “Carboxylic acid compound” (Daiichi Sankyo Company, Limited, priority 2008, dated 2012).

These compounds were tested on genetically obese impaired glucose tolerance rats (Crlj:ZUC-Lepr^fa/Lepr^fa rats) (assay: Oral glucose tolerance test). Conditions: Rattus norvegicus, 0.5 h; dose 0.3 mg/kg oral; glucose 2 g/kg oral 30 minutes after compound; blood glucose 30 minutes after glucose loading; vs control group; read-out: Blood glucose lowering index (%).
Type: in vivo
Description: Oral Glucose Tolerance Test
Commercially available genetically obese impaired glucose tolerance rats (Crlj:ZUC-Lepr^fa/Lepr^fa rats, male, 11 weeks of age at the time of use, purchased from Charles River Laboratories Japan, Inc.)
(2) Experimental Method and Results
The rats were preliminarily reared for 2 weeks by feeding them laboratory chow (FR-2, Funabashi Farm Co., Ltd.) ad libitum. Then, the rats were fasted for 15 to 18 hours and used as test animals. A suspension was prepared such that the concentration of a test compound fell within a range from 0.075 to 0.25 mg/mL using a 0.5% solution of methyl cellulose (Wako Pure Chemical Industries, Ltd.). The test compound was orally administered by gavage to the rats (6 rats in each group) at a dose of 0.3 to 1 mg/kg. To the rats in the control group, a 0.5% solution of methyl cellulose was orally administered at a dose of 4 mL/kg. The oral glucose loading was performed such that a glucose solution (Otsuka Glucose Injection 50%, Otsuka Pharmaceutical Co., Ltd.) was orally administered at a dose of 2 g/kg after 30 minutes from administration of the test compound.
The blood was collected from the tail vein of each rat, and the blood glucose level was measured after 30 minutes from the oral glucose loading using a fully automatic blood glucose meter (Glucoroder GXT, A& T Corporation), and the blood glucose lowering index (%) was calculated from the following equation.
Blood glucose lowering index (%)=[1−(blood glucose level in test compound administration group)/(blood glucose level in control group)]×100
For `CCO[C@@H](CC(=O)O)c1ccc(O[C@@H]2COc3c(OC(F)(F)F)cccc32)cc1` [Example 55, (3S)-3-Ethoxy-3-(4-{[(3S)-7-(trifluoromethoxy)-2,3-dihydro-1-benzofuran-3-yl]oxy}phenyl)propionic acid], the inhibition in vivo at 0.3 mg/kg was 38%. Compound `CCO[C@@H](CC(=O)O)c1ccc(O[C@@H]2CCc3c2ccc(F)c3C(F)(F)F)cc1` [Example 56, (3S)-3-Ethoxy-3-(4-{[(1R)-5-fluoro-4-(trifluoromethyl)-2,3-dihydro-1H-inden-1-yl]oxy}phenyl)-propionic acid] has an inhibition in vivo at 0.3 mg/kg of 40%. `CCO[C@@H](CC(=O)O)c1ccc(O[C@@H]2CCc3c(C(F)F)cccc32)cc1` [Example 59, (3S)-3-(4-{[(1R)-4-(Difluoromethyl)-2,3-dihydro-1H-inden-1-yl]oxy}phenyl)-3-ethoxypropionic acid] gave an inhibition in vivo at 0.3 mg/kg of 32%. `CCO[C@@H](CC(=O)O)c1ccc(O[C@@H]2CCc3c2cc(F)cc3C(F)(F)F)cc1` [Example 61, (3S)-3-Ethoxy-3-(4-{[(1R)-6-fluoro-4-(trifluoromethyl)-2,3-dihydro-1H-inden-1-yl]oxy}phenyl)-propionic acid] gave an inhibition in vivo at 0.3 mg/kg of 34%. Work on `CCO[C@@H](CC(=O)O)c1ccc(O[C@@H]2CCc3c(C)cc(C)cc32)cc1` [Example 62, (3S)-3-(4-{[(1R)-4,6-Dimethyl-2,3-dihydro-1H-inden-1-yl]oxy}phenyl)-3-ethoxypropionic acid] yielded an inhibition in vivo at 0.3 mg/kg of 33%. `CCO[C@@H](CC(=O)O)c1ccc(O[C@@H]2CCc3c(C4CC4)cccc32)cc1` [Example 64, (3S)-3-(4-{[(1R)-4-Cyclopropyl-2,3-dihydro-1H-inden-1-yl]oxy}phenyl)-3-ethoxypropionic acid] showed an inhibition in vivo at 0.3 mg/kg of 30%.

Same assay, conditions: Rattus norvegicus, 0.5 h; dose 1 mg/kg oral; glucose 2 g/kg oral 30 minutes after compound; blood glucose 30 minutes after glucose loading; vs control group; read-out: Blood glucose lowering index (%)
With `CCOC(CC(=O)O)c1ccc(OCc2ccc(Cl)c(Cl)c2)cc1` (centres unmarked) [Example 1, 3-{4-[(3,4-Dichlorobenzyl)oxy]phenyl}-3-ethoxypropionic acid] the inhibition in vivo at 1 mg/kg was 25%. Compound `CCO[C@@H](CC(=O)O)c1ccc(OCc2ccc(Cl)c(Cl)c2)cc1` [Example 16, (3S)-3-{4-[(3,4-Dichlorobenzyl)oxy]phenyl}-3-ethoxypropionic acid] has an inhibition in vivo at 1 mg/kg of 39%. With `CCOC(CC(=O)O)c1ccc(OCc2ccc(C(F)(F)F)cc2)nc1` (centres unmarked) [Example 17, 3-Ethoxy-3-(6-{[4-(trifluoromethyl)benzyl]oxy}pyridin-3-yl)propionic acid] the inhibition in vivo at 1 mg/kg was 38%. With `CCO[C@@H](CC(=O)O)c1ccc(OCc2ccc(C(F)(F)F)cc2)nc1` [Example 18, (3S)-3-Ethoxy-3-(6-{[4-(trifluoromethyl)benzyl]oxy}pyridin-3-yl)propionic acid] the inhibition in vivo at 1 mg/kg was 35%. `CCOC(CC(=O)O)c1ccc(OCc2ccccc2C)cc1` (centres unmarked) [Example 20, 3-Ethoxy-3-{4-[(2-methylbenzyl)oxy]phenyl}propionic acid] was tested, and the inhibition in vivo at 1 mg/kg was 15%. For `CCOC(CC(=O)O)c1ccc(Oc2ccc(C#N)c3ccccc23)cc1` (centres unmarked) [Example 23, 3-{4-[(4-Cyano-1-naphthyl)oxy]phenyl}-3-ethoxypropionic acid], the inhibition in vivo at 1 mg/kg was 16%. Compound `CCOC(CC(=O)O)c1ccc(Oc2cc(Cl)cc(Cl)c2)cc1` (centres unmarked) [Example 24, 3-[4-(3,5-Dichlorophenoxy)phenyl]-3-ethoxypropionic acid] has an inhibition in vivo at 1 mg/kg of 37%. With `CCOC(CC(=O)O)c1ccc(Oc2cc(Cl)ccc2Cl)cc1` (centres unmarked) [Example 25, 3-[4-(2,5-Dichlorophenoxy)phenyl]-3-ethoxypropionic acid] the inhibition in vivo at 1 mg/kg was 39%. In the case of `CCO[C@@H](CC(=O)O)c1ccc(OCc2ccc(C(F)(F)F)cc2)cc1` [Example 49, (3S)-3-Ethoxy-3-(4-{[4-(trifluoromethyl)benzyl]oxy}phenyl)propionic acid], the inhibition in vivo at 1 mg/kg is reported as 37%. Work on `CCO[C@@H](CC(=O)O)c1ccc(O[C@@H]2CCc3c(Cl)cccc32)cc1` [Example 50, (3S)-3-(4-{[(1R)-4-Chloro-2,3-dihydro-1H-inden-1-yl]oxy}phenyl)-3-ethoxypropionic acid] yielded an inhibition in vivo at 1 mg/kg of 38%. For `CCO[C@@H](CC(=O)O)c1ccc(O[C@@H]2CCc3c2cccc3C(F)(F)F)cc1` [Example 51, (3S)-3-Ethoxy-3-(4-{[(1R)-4-(trifluoromethyl)-2,3-dihydro-1H-inden-1-yl]oxy}phenyl)propionic acid], the inhibition in vivo at 1 mg/kg was 42%. `CCO[C@@H](CC(=O)O)c1ccc(O[C@H]2CCc3c(Cl)cccc32)cc1` [Example 52, (3S)-3-(4-{[(1S)-4-Chloro-2,3-dihydro-1H-inden-1-yl]oxy}phenyl)-3-ethoxypropionic acid] gave an inhibition in vivo at 1 mg/kg of 15%. `CCO[C@@H](CC(=O)O)c1ccc(OC2CCc3c2cccc3C(F)(F)F)cc1` (stereo partly drawn) [Example 53, (3S)-3-Ethoxy-3-(4-{[4-(trifluoromethyl)-2,3-dihydro-1H-inden-1-yl]oxy}phenyl)propionic acid] gave an inhibition in vivo at 1 mg/kg of 41%. `CCO[C@@H](CC(=O)O)c1ccc(O[C@@H]2CCc3c(CC)cccc32)cc1` [Example 57, (3S)-3-Ethoxy-3-(4-{[(1R)-4-ethyl-2,3-dihydro-1H-inden-1-yl]oxy}phenyl)propionic acid] showed an inhibition in vivo at 1 mg/kg of 50%. For `CCO[C@@H](CC(=O)O)c1ccc(O[C@@H]2CCc3c(C)cccc32)cc1` [Example 58, (3S)-3-Ethoxy-3-(4-{[(1R)-4-methyl-2,3-dihydro-1H-inden-1-yl]oxy}phenyl)propionic acid], the inhibition in vivo at 1 mg/kg was 35%. With `CCO[C@@H](CC(=O)O)c1ccc(O[C@@H]2COc3c2cccc3C(F)(F)F)cc1` [Example 60, (3S)-3-Ethoxy-3-(4-{[(3S)-7-(trifluoromethyl)-2,3-dihydro-1-benzofuran-3-yl]oxy}phenyl)propionic acid] the inhibition in vivo at 1 mg/kg was 48%. For `CCO[C@@H](CC(=O)O)c1ccc(O[C@@H]2CCc3c(OC(F)(F)F)cccc32)cc1` [Example 63, (3S)-3-Ethoxy-3-(4-{[(1R)-4-(trifluoromethoxy)-2,3-dihydro-1H-inden-1-yl]oxy}phenyl)propionic acid], the inhibition in vivo at 1 mg/kg was 45%.
